Data: patent US5169836A, “Inhibitors of platelet binding” (Trustees of the University of Penna., priority 1988, dated 1992)
Where no end group is shown, it is not given here.

What was measured:
[1] = target: T1, glycoprotein IIb-IIIa on activated platelets (Homo sapiens, UniProt P05106+P08514); assay: Binding of FITC-PAC1 to activated gel-filtered platelets, flow cytometry; conditions: for effect on FITC-PAC1 binding: platelets activated with ADP and epinephrine (10 μM each), peptide 0-100 μM
T1 construct: Venous blood from normal donors was drawn; endogenous in cells
T1 sequence (P08514 32-887 limits assumed): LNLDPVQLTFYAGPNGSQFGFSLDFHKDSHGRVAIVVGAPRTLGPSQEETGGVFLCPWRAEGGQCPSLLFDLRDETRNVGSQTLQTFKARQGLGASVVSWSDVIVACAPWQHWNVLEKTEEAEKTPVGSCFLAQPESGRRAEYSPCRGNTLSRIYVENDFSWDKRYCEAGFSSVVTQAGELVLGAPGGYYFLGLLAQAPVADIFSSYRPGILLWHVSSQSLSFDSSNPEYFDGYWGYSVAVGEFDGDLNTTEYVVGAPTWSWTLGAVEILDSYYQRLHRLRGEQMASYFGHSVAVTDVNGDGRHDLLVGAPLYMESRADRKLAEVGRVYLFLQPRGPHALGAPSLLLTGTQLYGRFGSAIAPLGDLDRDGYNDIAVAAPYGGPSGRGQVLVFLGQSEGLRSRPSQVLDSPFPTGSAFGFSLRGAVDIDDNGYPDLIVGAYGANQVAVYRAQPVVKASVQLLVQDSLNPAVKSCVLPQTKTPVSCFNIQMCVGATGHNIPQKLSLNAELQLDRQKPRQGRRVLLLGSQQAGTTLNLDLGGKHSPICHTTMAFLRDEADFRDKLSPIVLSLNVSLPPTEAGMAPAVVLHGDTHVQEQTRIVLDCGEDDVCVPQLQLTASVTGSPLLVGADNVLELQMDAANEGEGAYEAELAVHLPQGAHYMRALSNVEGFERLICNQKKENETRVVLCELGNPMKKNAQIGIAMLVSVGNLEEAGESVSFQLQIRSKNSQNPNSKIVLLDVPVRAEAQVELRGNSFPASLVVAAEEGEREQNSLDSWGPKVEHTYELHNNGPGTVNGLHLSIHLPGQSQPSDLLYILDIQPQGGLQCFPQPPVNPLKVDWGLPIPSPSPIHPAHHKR
T1 sequence (P05106 27-788): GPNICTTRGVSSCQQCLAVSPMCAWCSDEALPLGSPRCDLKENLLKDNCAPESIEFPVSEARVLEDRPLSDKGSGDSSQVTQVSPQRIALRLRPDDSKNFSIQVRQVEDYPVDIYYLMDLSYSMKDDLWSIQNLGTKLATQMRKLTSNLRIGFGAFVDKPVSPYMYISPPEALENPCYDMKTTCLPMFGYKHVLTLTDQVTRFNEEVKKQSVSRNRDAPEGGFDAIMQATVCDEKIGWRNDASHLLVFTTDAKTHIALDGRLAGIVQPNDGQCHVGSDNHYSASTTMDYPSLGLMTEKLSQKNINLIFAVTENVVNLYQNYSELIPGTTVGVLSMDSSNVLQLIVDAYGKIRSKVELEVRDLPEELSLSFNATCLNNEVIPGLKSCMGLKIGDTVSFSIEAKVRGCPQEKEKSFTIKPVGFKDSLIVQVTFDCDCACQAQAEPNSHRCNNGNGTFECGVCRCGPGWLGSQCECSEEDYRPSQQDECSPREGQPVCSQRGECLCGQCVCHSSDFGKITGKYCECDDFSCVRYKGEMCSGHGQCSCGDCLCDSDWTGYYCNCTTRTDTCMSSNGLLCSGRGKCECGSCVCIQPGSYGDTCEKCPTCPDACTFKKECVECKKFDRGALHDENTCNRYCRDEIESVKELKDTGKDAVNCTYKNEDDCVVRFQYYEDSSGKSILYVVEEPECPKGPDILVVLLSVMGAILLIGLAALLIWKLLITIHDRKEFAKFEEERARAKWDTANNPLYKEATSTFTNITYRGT
Text: The binding of PAC1 monoclonal antibody and fibrinogen to gel-filtered human blood platelets was examined by fluorescence-activated flow cytometry using the procedures of Shattil et al., Blood, 70, 307-315 (1987). Venous blood from normal donors was drawn into 1/7 vol of NIH formula A acid-citrate-dextrose solution, platelet-rich plasma was obtained, and the platelets were gel-filtered into an isotonic HEPES-containing buffer at pH 7.4, as described in Shattil et al., Blood, 68, 1224-1231 (1986). To examine the effect of synthetic peptides on PAC1 binding to activated platelets, 5×10^7 platelets were incubated for 15 min at room temperature in a final vol of 50 μl in the presence of varying concentrations of (0-100 μM) of peptide, 40 μg/ml fluorescein-labeled PAC1 (FITC-PAC1 ), 10 μM ADP and 10 μM epinephrine. Then, 500 μl of the isotonic buffer was added and antibody binding was quantitated using a flow cytometer, as described in Shattil et al., Blood, 70, 307-315 (1987). Fibrinogen binding to platelets was measured using the same incubation system, except that 50 μg/ml of purified human fibrinogen as described in Bennett et al., J. Clin. Invest., 64, 1393-1400 (1979) was added and the monoclonal antibody, FITC-9F9, was used instead of FITC-PAC1. […] Abrams et al., Blood, 70, 335a (1987). […] Shattil et al., Blood 70, 307-315 (1987). The amount of platelet-bound FITC-PAC1 or FITC-9F9 was determined by analyzing 10,000 platelets for the extent of fluorescence at 488 nm, and binding expressed as the mean fluorescence intensity in arbitrary fluorescence units.

[2] = target: T2, blood platelet membrane fibrinogen receptor, glycoprotein IIb-IIIa (Homo sapiens, UniProt P05106+P08514); assay: Fibrinogen binding to activated gel-filtered platelets, measured with FITC-9F9 by flow cytometry; conditions: 50 μg/ml fibrinogen
T2 construct: Venous blood from normal donors was drawn; endogenous in cells
T2 sequence (P08514 32-887 limits assumed): T1 sequence (P08514 32-887 limits assumed)
T2 sequence (P05106 27-788): T1 sequence (P05106 27-788)
Text: The binding of PAC1 monoclonal antibody and fibrinogen to gel-filtered human blood platelets was examined by fluorescence-activated flow cytometry using the procedures of Shattil et al., Blood, 70, 307-315 (1987). Venous blood from normal donors was drawn into 1/7 vol of NIH formula A acid-citrate-dextrose solution, platelet-rich plasma was obtained, and the platelets were gel-filtered into an isotonic HEPES-containing buffer at pH 7.4, as described in Shattil et al., Blood, 68, 1224-1231 (1986). […] Then, 500 μl of the isotonic buffer was added and antibody binding was quantitated using a flow cytometer, as described in Shattil et al., Blood, 70, 307-315 (1987). Fibrinogen binding to platelets was measured using the same incubation system, except that 50 μg/ml of purified human fibrinogen as described in Bennett et al., J. Clin. Invest., 64, 1393-1400 (1979) was added and the monoclonal antibody, FITC-9F9, was used instead of FITC-PAC1. […] Previous studies have established that the amount of FITC-labeled antibody bound to platelets determined by flow cytometry is related in a linear fashion to the amount of antibody bound determined in a conventional radioligand binding assay. […]
The ability of Arg-Tyr-Asp-21mer to inhibit fibrinogen binding to activated platelets was also tested. Fibrinogen binding was assessed by flow cytometry using a FITC-labeled anti-fibrinogen monoclonal antibody, 9F9. […]

[3] = target: T3, glycoprotein IIb (Homo sapiens, UniProt P08514); assay: Binding of FITC-B1B5 to activated platelets, flow cytometry; conditions: activated platelets (ADP and epinephrine, 10 μM each)
T3 construct: endogenous in cells
T3 sequence (P08514 32-887 limits assumed): T1 sequence (P08514 32-887 limits assumed)
Method: (§1) Gel-filtered platelets were incubated in the presence of Arg-Tyr-Asp-21mer and various FITC-labeled anti-platelet monoclonal antibodies. Monoclonal antibody binding was determined by flow cytometry. In the case of antibody AP1 (specific for platelet glycoprotein Ib) (unfilled circles), the platelets were not activated. In the case of antibodies PAC1 (specific for activated glycoproteins IIb-IIIa) (filled circles), BIB5 (specific for glycoprotein IIb) (filled squares) and S12 (specific for GMP-140) (unfilled triangles), the platelets were activated with ADP and epinephrine (10 μM each). The data shown are from a single experiment representative of two runs performed as described.
(§2) The binding of PAC1 monoclonal antibody and fibrinogen to gel-filtered human blood platelets was examined by fluorescence-activated flow cytometry using the procedures of Shattil et al., Blood, 70, 307-315 (1987). […] Then, 500 μl of the isotonic buffer was added and antibody binding was quantitated using a flow cytometer, as described in Shattil et al., Blood, 70, 307-315 (1987). Fibrinogen binding to platelets was measured using the same incubation system, except that 50 μg/ml of purified human fibrinogen as described in Bennett et al., J. Clin. Invest., 64, 1393-1400 (1979) was added and the monoclonal antibody, FITC-9F9, was used instead of FITC-PAC1. […]

[4] = target: T4, GMP-140 (Homo sapiens, UniProt P16109); assay: Binding of FITC-S12 to activated platelets, flow cytometry; conditions: activated platelets (ADP and epinephrine, 10 μM each)
T4 construct: endogenous in cells
T4 sequence (P16109 42-830): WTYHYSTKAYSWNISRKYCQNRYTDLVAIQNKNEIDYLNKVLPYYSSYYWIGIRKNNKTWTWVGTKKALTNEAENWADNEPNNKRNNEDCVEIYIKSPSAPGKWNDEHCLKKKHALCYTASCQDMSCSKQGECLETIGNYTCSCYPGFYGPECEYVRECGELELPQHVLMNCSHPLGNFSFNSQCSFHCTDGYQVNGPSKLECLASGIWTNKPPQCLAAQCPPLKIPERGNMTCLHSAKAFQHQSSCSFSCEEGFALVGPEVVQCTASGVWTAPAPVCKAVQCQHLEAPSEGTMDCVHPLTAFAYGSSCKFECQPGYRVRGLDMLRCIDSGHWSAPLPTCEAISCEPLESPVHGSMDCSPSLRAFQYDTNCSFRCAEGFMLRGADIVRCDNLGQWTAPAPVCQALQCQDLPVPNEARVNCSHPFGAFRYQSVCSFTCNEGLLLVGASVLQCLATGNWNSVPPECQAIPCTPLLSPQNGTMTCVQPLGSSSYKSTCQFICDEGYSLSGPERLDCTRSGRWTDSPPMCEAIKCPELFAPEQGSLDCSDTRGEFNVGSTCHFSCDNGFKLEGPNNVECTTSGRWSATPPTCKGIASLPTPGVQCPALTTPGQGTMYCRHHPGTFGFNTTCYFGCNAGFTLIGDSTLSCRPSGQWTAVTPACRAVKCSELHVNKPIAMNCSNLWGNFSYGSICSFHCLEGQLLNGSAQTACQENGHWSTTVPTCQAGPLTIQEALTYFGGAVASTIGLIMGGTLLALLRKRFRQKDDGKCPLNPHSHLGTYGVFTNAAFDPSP
Method: as §1, §2

[5] = target: T5, platelet glycoprotein Ib (Homo sapiens, UniProt P07359); assay: Binding of FITC-AP1 to resting platelets, flow cytometry
T5 construct: platelet glycoprotein Ib on resting platelets; endogenous in cells
Method: as §1, §2

T5 sequence (P07359 17-652): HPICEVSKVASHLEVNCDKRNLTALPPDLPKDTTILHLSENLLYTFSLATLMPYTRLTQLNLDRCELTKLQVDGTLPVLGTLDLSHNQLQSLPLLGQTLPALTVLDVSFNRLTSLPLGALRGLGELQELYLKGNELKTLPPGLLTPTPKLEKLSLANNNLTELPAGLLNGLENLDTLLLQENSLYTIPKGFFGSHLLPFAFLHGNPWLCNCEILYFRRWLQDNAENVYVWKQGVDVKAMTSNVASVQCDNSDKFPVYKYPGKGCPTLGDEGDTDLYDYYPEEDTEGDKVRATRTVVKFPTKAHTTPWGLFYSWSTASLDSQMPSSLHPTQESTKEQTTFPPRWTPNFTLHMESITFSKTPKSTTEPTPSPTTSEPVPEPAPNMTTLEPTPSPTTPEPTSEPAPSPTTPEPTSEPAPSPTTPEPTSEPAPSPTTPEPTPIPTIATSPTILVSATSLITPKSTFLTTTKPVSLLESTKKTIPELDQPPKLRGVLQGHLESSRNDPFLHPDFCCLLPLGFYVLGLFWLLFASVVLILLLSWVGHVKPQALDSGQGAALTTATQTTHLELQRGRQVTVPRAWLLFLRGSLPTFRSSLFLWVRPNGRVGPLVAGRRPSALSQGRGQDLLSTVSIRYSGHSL
T5 sequence (P13224 26-206 partner): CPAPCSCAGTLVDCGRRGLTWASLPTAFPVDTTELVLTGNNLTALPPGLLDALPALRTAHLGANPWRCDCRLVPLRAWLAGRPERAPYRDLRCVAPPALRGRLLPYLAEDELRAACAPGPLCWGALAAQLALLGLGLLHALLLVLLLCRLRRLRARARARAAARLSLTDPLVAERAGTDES
T5 sequence (P14770 17-177 partner): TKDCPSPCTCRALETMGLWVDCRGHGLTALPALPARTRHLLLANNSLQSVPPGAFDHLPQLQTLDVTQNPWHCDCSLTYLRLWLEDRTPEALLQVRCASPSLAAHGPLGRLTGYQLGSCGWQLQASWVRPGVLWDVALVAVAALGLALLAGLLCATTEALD

Ki ([1]; Dixon plot analysis, five separate experiments, ±SE, read-out: apparent Ki for inhibition of PAC1 binding) [µM] | IC50 ([1]; platelets activated with 10 μM ADP and 10 μM epinephrine, 40 μg/ml FITC-PAC1, 15 min, room temperature, read-out: IC50 for inhibition of the binding of FITC-PAC1 to platelets) [µM] | effect on FITC-PAC1 binding [1] | Ki ([2]; Dixon plot analysis, three experiments, ADP plus epinephrine, read-out: apparent Ki for inhibition of fibrinogen binding) [µM] | effect on the binding of FITC-B1B5 to glycoprotein IIb [3] | effect on the binding of FITC-S12 to GMP-140 [4] | effect on the binding of FITC-AP1 to platelet glycoprotein Ib [5] | effect on 9F9 binding (fibrinogen binding) ([2]; platelets activated with ADP plus epinephrine) | Substance
10.2 ± 4.3 | 20 to 30 | marked effect | 5.5 ± 3.5 | no effect | no effect | no effect | – | ARRSPSYYRYDGAGPYYAMDY [Arg-Tyr-Asp-21mer]
– | – | no effect | – | – | – | – | no effect | NH2 -Tyr-Val-Asp-Gly-Asp-Gln-Cys-(Acm)-Glu-Ser-Asn-Pro-Cys-Leu-Asn-Gly-Gly-Met(O)-Cys-(Acm)-Lys-Asp-Asp-Ile-Asn-Ser-Tyr-Gly-Cys-Phe-COOH [unrelated-28mer, reference compound]
